Assay results taken from patent publication US20210308173A1, “PHARMACEUTICAL COMPOSITION COMPRISING CYCLODEXTRIN COMPLEXES OF ANETHOLE TRITHIONE OR DERIVATIVES THEREOF” (priority 2018, published 2021).
≈ marks a conversion by molar mass, not a printed value.

Tests used:
Format in all cases: physicochemical
[1] = Solubility testing in buffer containing media
Protocol: The solubility of AOL was tested in aqueous HP-β-CD and SBE-β-CD media at various concentrations and pH levels at room temperature. Some initial tests, where the pH of the formulations was adjusted only by addition of HCl or NaOH solutions, did evidence high variation in pH and difficulties to reach the target pH. Therefore, it was decided to prepare samples containing a buffering agent to get a stable pH and to facilitate the preparation of the formulations.
A citrate buffer was used at pH 5.5 and phosphate buffer were used at pH 6.5 and 7.5. The solubility (mg/mL) is the mean of 2 independent replicates.

[2] = Chemical stability of AOL in cyclodextrin solutions by HPLC; conditions: associated with HP-β-CD, conditions of Example 4
[3] = Stability versus formulation according to Dollo et al.; conditions: formulation of the invention vs formulation according to Dollo et al.
From the text: Consequently, the formulations wherein anethole trithione and derivatives thereof present an improved solubility and stability are still an unmet need.

[4] = Cyclodextrin solubilization screening of AOL; conditions: water, 25 °C, thermodynamic from solid, read-out: intrinsic solubility in water

solubility ([1]; aqueous SBE-β-CD medium with buffer, pH 5.5, aqueous with cosolvent or surfactant or cyclodextrin, SBE-β-CD 10.0% (w/w), Citrate (100 μM), room temperature, read-out: AOL solubility): 165 µg/mL (≈ 686 µM)
solubility ([1]; aqueous SBE-β-CD medium with buffer, pH 5.5, aqueous with cosolvent or surfactant or cyclodextrin, SBE-β-CD 40.0% (w/w), Citrate (100 μM), room temperature, read-out: AOL solubility): 1140 µg/mL (≈ 4730 µM)
solubility ([1]; aqueous SBE-β-CD medium with buffer, pH 6.5, aqueous with cosolvent or surfactant or cyclodextrin, SBE-β-CD 10.0% (w/w), Phosphate 6.5 (100 μM), room temperature, read-out: AOL solubility): 168 µg/mL (≈ 699 µM)
solubility ([1]; aqueous SBE-β-CD medium with buffer, pH 6.5, aqueous with cosolvent or surfactant or cyclodextrin, SBE-β-CD 40.0% (w/w), Phosphate 6.5 (100 μM), room temperature, read-out: AOL solubility): 1210 µg/mL (≈ 5020 µM)
solubility ([1]; aqueous SBE-β-CD medium with buffer, pH 7.5, aqueous with cosolvent or surfactant or cyclodextrin, SBE-β-CD 40.0% (w/w), Phosphate 7.5 (100 μM), room temperature, read-out: AOL solubility): 1180 µg/mL (≈ 4920 µM)
solubility ([1]; buffered aqueous HP-β-CD medium, pH 5.5, aqueous with cosolvent or surfactant or cyclodextrin, HP-β-CD 10.0% (w/w), Citrate (100 μM), room temperature, read-out: AOL solubility): 79 µg/mL (≈ 329 µM)
solubility ([1]; buffered aqueous HP-β-CD medium, pH 5.5, aqueous with cosolvent or surfactant or cyclodextrin, HP-β-CD 20.0% (w/w), Citrate (100 μM), room temperature, read-out: AOL solubility): 212 µg/mL (≈ 882 µM)
solubility ([1]; buffered aqueous HP-β-CD medium, pH 5.5, aqueous with cosolvent or surfactant or cyclodextrin, HP-β-CD 30.0% (w/w), Citrate (100 μM), room temperature, read-out: AOL solubility): 505 µg/mL (≈ 2100 µM)
solubility ([1]; buffered aqueous HP-β-CD medium, pH 5.5, aqueous with cosolvent or surfactant or cyclodextrin, HP-β-CD 40.0% (w/w), Citrate (100 μM), room temperature, read-out: AOL solubility): 721 µg/mL (≈ 3000 µM)
solubility ([1]; buffered aqueous HP-β-CD medium, pH 6.5, aqueous with cosolvent or surfactant or cyclodextrin, HP-β-CD 10.0% (w/w), Phosphate 6.5 (100 μM), room temperature, read-out: AOL solubility): 111 µg/mL (≈ 462 µM)
solubility ([1]; buffered aqueous HP-β-CD medium, pH 6.5, aqueous with cosolvent or surfactant or cyclodextrin, HP-β-CD 20.0% (w/w), Phosphate 6.5 (100 μM), room temperature, read-out: AOL solubility): 274 µg/mL (≈ 1140 µM)
solubility ([1]; buffered aqueous HP-β-CD medium, pH 6.5, aqueous with cosolvent or surfactant or cyclodextrin, HP-β-CD 30.0% (w/w), Phosphate 6.5 (100 μM), room temperature, read-out: AOL solubility): 480 µg/mL (≈ 2000 µM)
solubility ([1]; buffered aqueous HP-β-CD medium, pH 6.5, aqueous with cosolvent or surfactant or cyclodextrin, HP-β-CD 40.0% (w/w), Phosphate 6.5 (100 μM), room temperature, read-out: AOL solubility): 676 µg/mL (≈ 2810 µM)
solubility ([1]; buffered aqueous HP-β-CD medium, pH 7.5, aqueous with cosolvent or surfactant or cyclodextrin, HP-β-CD 10.0% (w/w), Phosphate 7.5 (100 μM), room temperature, read-out: AOL solubility): 112 µg/mL (≈ 466 µM)
solubility ([1]; buffered aqueous HP-β-CD medium, pH 7.5, aqueous with cosolvent or surfactant or cyclodextrin, HP-β-CD 20.0% (w/w), Phosphate 7.5 (100 μM), room temperature, read-out: AOL solubility): 283 µg/mL (≈ 1180 µM)
solubility ([1]; buffered aqueous HP-β-CD medium, pH 7.5, aqueous with cosolvent or surfactant or cyclodextrin, HP-β-CD 30.0% (w/w), Phosphate 7.5 (100 μM), room temperature, read-out: AOL solubility): 540 µg/mL (≈ 2250 µM)
solubility ([1]; buffered aqueous HP-β-CD medium, pH 7.5, aqueous with cosolvent or surfactant or cyclodextrin, HP-β-CD 40.0% (w/w), Phosphate 7.5 (100 μM), room temperature, read-out: AOL solubility): 723 µg/mL (≈ 3010 µM)
solubility ([1]; buffered aqueous SBE-β-CD medium, pH 5.5, aqueous with cosolvent or surfactant or cyclodextrin, SBE-β-CD 20.0% (w/w), Citrate (100 μM), room temperature, read-out: AOL solubility): 369 µg/mL (≈ 1540 µM)
solubility ([1]; buffered aqueous SBE-β-CD medium, pH 5.5, aqueous with cosolvent or surfactant or cyclodextrin, SBE-β-CD 30.0% (w/w), Citrate (100 μM), room temperature, read-out: AOL solubility): 675 µg/mL (≈ 2810 µM)
solubility ([1]; buffered aqueous SBE-β-CD medium, pH 6.5, aqueous with cosolvent or surfactant or cyclodextrin, SBE-β-CD 20.0% (w/w), Phosphate 6.5 (100 μM), room temperature, read-out: AOL solubility): 382 µg/mL (≈ 1590 µM)
solubility ([1]; buffered aqueous SBE-β-CD medium, pH 6.5, aqueous with cosolvent or surfactant or cyclodextrin, SBE-β-CD 30.0% (w/w), Phosphate 6.5 (100 μM), room temperature, read-out: AOL solubility): 676 µg/mL (≈ 2810 µM)
solubility ([1]; buffered aqueous SBE-β-CD medium, pH 7.5, aqueous with cosolvent or surfactant or cyclodextrin, SBE-β-CD 10.0% (w/w), Phosphate 7.5 (100 μM), room temperature, read-out: AOL solubility): 170 µg/mL (≈ 707 µM)
solubility ([1]; buffered aqueous SBE-β-CD medium, pH 7.5, aqueous with cosolvent or surfactant or cyclodextrin, SBE-β-CD 20.0% (w/w), Phosphate 7.5 (100 μM), room temperature, read-out: AOL solubility): 375 µg/mL (≈ 1560 µM)
solubility ([1]; buffered aqueous SBE-β-CD medium, pH 7.5, aqueous with cosolvent or surfactant or cyclodextrin, SBE-β-CD 30.0% (w/w), Phosphate 7.5 (100 μM), room temperature, read-out: AOL solubility): 685 µg/mL (≈ 2850 µM)
solubility ([1]; buffered aqueous cyclodextrin solution, pH 6.5, aqueous with cosolvent or surfactant or cyclodextrin, 40% SBE-β-cyclodextrin, pH 6.5 phosphate buffer, read-out: highest solubility value): 1210 µg/mL (≈ 5020 µM)
solubility ([1]; buffered aqueous cyclodextrin solution, pH 7.5, aqueous with cosolvent or surfactant or cyclodextrin, 40% HP-β-cyclodextrin, pH 7.5 phosphate buffer, read-out: highest solubility value): 723 µg/mL (≈ 3010 µM)
chemical stability (HPLC impurities) [2]: chemical instability
stability of the active compound [3]: significantly more stable
solubility [4]: ~0.2 µg/mL (≈ 0.832 µM)
SMILES: COc1ccc(-c2cc(=S)ss2)cc1 [AOL, 5-(4-methoxyphenyl)-3H-1,2-dithiole-3-thione]
